Laboratory results published in the supplement of paper PMC7840683.
± gives the standard deviation of the averaged measurements.

Test system: HepaRG
Assay: LDH release cytotoxicity, % of total lysis control; higher = more cytotoxic
Settings: 48 h
In short: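 Single-lot HepaRG cells in collagen I-coated 96-well plates were treated for 48 h in serum-free induction medium containing 0.5% DMSO with test chemicals in eight-point half-log series up to 100 µM. For total lysis, wells received 0.1% Triton X. LDH in 50 µL spent medium was assayed by resorufin fluorescence with CytoTox-ONE. Percent cytotoxicity was normalized to the on-plate vehicle and total lysis controls, with duplicates averaged.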

Cc1ccc(-c2c(Cl)nc(C#N)n2S(=O)(=O)N(C)C)cc1 [Cyazofamid]
Settings	LDH release cytotoxicity [%]
0.03162 µM	1.31 ± 1.8
0.1 µM	-1.5 ± 0.69
0.3162278 µM	-1.4 ± 1.1
1 µM	-0.689 ± 0.31
3.16228 µM	-1.5 ± 0.35
10 µM	43.2 ± 2.3
31.6228 µM	52.8 ± 0.71
100 µM	53.7 ± 2.8

C1CCC(SSC2CCCCC2)CC1 [Dicyclohexyl disulfide]
Settings	LDH release cytotoxicity [%]
0.03162 µM	-0.985 ± 0.37
0.1 µM	-0.62 ± 0.75
0.3162278 µM	-0.405 ± 0.35
1 µM	-1.38 ± 0.086
3.16228 µM	-2 ± 0.2
10 µM	-0.29 ± 0.24
31.6228 µM	2.64 ± 0.37
100 µM	68.4 ± 6.2

CCC[CH2][Sn]([Cl])([CH2]CCC)[CH2]CCC [Tributyltin chloride]
Settings	LDH release cytotoxicity [%]
0.031623 µM	0.564 ± 1.9
0.1 µM	-3.6 ± 1.2
0.316228 µM	-2.2 ± 0.71
1 µM	-2.91 ± 0.74
3.16228 µM	-3.46 ± 0.11
10 µM	-2.765 ± 0.018
31.6228 µM	-1.81 ± 0.11
100 µM	0.00684 ± 1.1

CN1CCCC1=O [N-Methyl-2-pyrrolidone]
Settings	LDH release cytotoxicity [%]
0.03162 µM	-2.92 ± 1.9
0.1 µM	-3.16 ± 0.5
0.3162278 µM	-2.9 ± 0.41
1 µM	-2.75 ± 0.92
3.16228 µM	-1.74 ± 1.5
10 µM	-1.93 ± 0.75
31.6228 µM	-2.93 ± 0.35
100 µM	7.04 ± 0.053

CC(C)C(C(=O)OC(C#N)c1cccc(Oc2ccccc2)c1)c1ccc(Cl)cc1 (configuration not stated) [Esfenvalerate]
Settings	LDH release cytotoxicity [%]
0.03162 µM	-0.0612 ± 0.44
0.1 µM	-1.61 ± 0.76
0.3162278 µM	-0.46 ± 0.66
1 µM	-0.419 ± 0.79
3.16228 µM	-1.05 ± 0.74
10 µM	0.166 ± 0.61
31.6228 µM	-0.322 ± 0.82
100 µM	-0.488 ± 0.23

COCC(C)N(C(=O)CCl)c1c(C)csc1C (configuration not stated) [Dimethenamid]
Settings	LDH release cytotoxicity [%]
0.031623 µM	-1.73 ± 1.3
0.1 µM	-3.31 ± 1.4
0.316228 µM	-2.49 ± 1.9
1 µM	-2.95 ± 1.9
3.16228 µM	-2.64 ± 2.5
10 µM	-3.81 ± 0.44
31.6228 µM	-2.28 ± 1
100 µM	0.11 ± 0.34

CCNc1nc(Cl)nc(NC(C)(C)C#N)n1 [Cyanazine]
Settings	LDH release cytotoxicity [%]
0.03162 µM	-0.628 ± 0.49
0.1 µM	-0.139 ± 1.2
0.3162278 µM	-0.711 ± 0.36
1 µM	-1.27 ± 0.13
3.16228 µM	-0.482 ± 0.15
10 µM	-0.431 ± 0.068
31.6228 µM	-0.343 ± 0.24
100 µM	0.714 ± 0.2

OCCN(CCO)CCO [Triethanolamine]
Settings	LDH release cytotoxicity [%]
0.03162 µM	-0.32 ± 0.27
0.1 µM	-0.911 ± 0.6
0.3162278 µM	-1.61 ± 0.09
1 µM	-1.26 ± 0.23
3.16228 µM	-1.19 ± 1.4
10 µM	-0.416 ± 1.2
31.6228 µM	-0.346 ± 0.72
100 µM	1.04 ± 0.38

CCCCCCC(C)OC(=O)COc1nc(F)c(Cl)c(N)c1Cl (configuration not stated) [Fluroxypyr-meptyl]
Settings	LDH release cytotoxicity [%]
0.031623 µM	1.23 ± 0.18
0.1 µM	-0.123 ± 1.8
0.316228 µM	0.191 ± 1
1 µM	-0.348 ± 1.1
3.16228 µM	-7.7 ± 0.78
10 µM	8.36 ± 3.8
31.6228 µM	-0.641 ± 0.61
100 µM	-0.963 ± 0.71

CCCCCCCCCC [Decane]
Settings	LDH release cytotoxicity [%]
0.031623 µM	-0.647 ± 0.6
0.1 µM	-2.33 ± 0.84
0.316228 µM	-2.41 ± 0.87
1 µM	-2.73 ± 0.13
3.16228 µM	-3.64 ± 0.16
10 µM	-2.67 ± 0.26
31.6228 µM	-1.91 ± 0.28
100 µM	0.361 ± 0.12

CC(=O)C1C(=O)C=C(C)OC1=O (configuration not stated) [Sodium dehydroacetate]
Settings	LDH release cytotoxicity [%]
0.03162 µM	-0.267 ± 0.55
0.1 µM	-1.4 ± 0.22
0.3162278 µM	-2.06 ± 0.58
1 µM	-1.85 ± 0.29
3.16228 µM	-2.36 ± 0.14
10 µM	-1.16 ± 0.3
31.6228 µM	-0.728 ± 0.029
100 µM	0.541 ± 0.069

Cc1cc2c3c(c1)C(c1ccccc1)=NC(NC(=O)c1ccncc1)C(=O)N3CC2 (configuration not stated) [CI-1018]
Settings	LDH release cytotoxicity [%]
0.03162 µM	-1.91 ± 0.18
0.1 µM	-1.63 ± 0.47
0.3162278 µM	-1.51 ± 1.7
1 µM	-2.27 ± 0.065
3.16228 µM	-1.93 ± 0.3
10 µM	-1.89 ± 0.24
31.6228 µM	-2.24 ± 0.049
100 µM	5.94 ± 0.8

CC12CCC3C(CCC4CC(=O)CCC43C)C1CCC2O (stereo not drawn) [5alpha-Dihydrotestosterone]
Settings	LDH release cytotoxicity [%]
0.0322552 µM	-1.49 ± 0.51
0.102 µM	-1.05 ± 0.64
0.322552 µM	-1.02 ± 0.95
1.02 µM	-0.777 ± 0.65
3.2255232 µM	-0.0601 ± 0.54
10.2 µM	0.259 ± 0.88
32.2552 µM	2.27 ± 0.7
102 µM	7.51 ± 0.71

CCCCC(CC)COC(=O)c1ccc(C(=O)OCC(CC)CCCC)cc1 (configuration not stated) [Bis(2-ethylhexyl) terephthalate]
Settings	LDH release cytotoxicity [%]
0.03162 µM	-2 ± 1.1
0.1 µM	-1.13 ± 0.62
0.3162278 µM	-1.76 ± 0.63
1 µM	-2.5 ± 0.76
3.16228 µM	-2.35 ± 0.77
10 µM	-2.12 ± 0.71
31.6228 µM	-2.26 ± 0.82
100 µM	-1.14 ± 0.6

CC(C)c1cccc(C(C)C)c1 [1,3-Diisopropylbenzene]
Settings	LDH release cytotoxicity [%]
0.031623 µM	-1.99 ± 0.73
0.1 µM	-2.55 ± 1.5
0.316228 µM	-2.42 ± 1.3
1 µM	-4.25 ± 0.7
3.16228 µM	-3.82 ± 0.32
10 µM	-2.51 ± 1.5
31.6228 µM	-1.16 ± 0.34
100 µM	0.451 ± 1.2

CCCCCCCCCCCCCN1CC(C)OC(C)C1 (configuration not stated) [Tridemorph]
Settings	LDH release cytotoxicity [%]
0.0322552 µM	-2.04 ± 1.1
0.102 µM	-2.33 ± 0.85
0.322552 µM	-1.56 ± 0.26
1.02 µM	-2.46 ± 1
3.2255232 µM	-1.14 ± 0.89
10.2 µM	-0.844 ± 0.88
32.2552 µM	-0.534 ± 0.43
102 µM	71.8 ± 7.5

CCCCCCCCCCCCCO [1-Tridecanol]
Settings	LDH release cytotoxicity [%]
0.03162 µM	-1.51 ± 0.42
0.1 µM	-0.843 ± 0.39
0.3162278 µM	-0.758 ± 0.15
1 µM	-0.914 ± 0.16
3.16228 µM	-0.263 ± 1
10 µM	0.564 ± 1.8
31.6228 µM	0.347 ± 1.4
100 µM	3.78 ± 2.1

O=[N+]([O-])c1c(Cl)c(Cl)c(Cl)c(Cl)c1Cl [Pentachloronitrobenzene]
Settings	LDH release cytotoxicity [%]
0.03162 µM	-1.26 ± 0.72
0.1 µM	-1.49 ± 0.11
0.3162278 µM	-1.32 ± 0.71
1 µM	-1.55 ± 1.1
3.16228 µM	-0.822 ± 1.5
10 µM	0.118 ± 0.74
31.6228 µM	0.34 ± 0.41
100 µM	2.25 ± 1.1

CN(C)N=O [N-Nitrosodimethylamine]
Settings	LDH release cytotoxicity [%]
0.02893 µM	0.0505 ± 1.7
0.0915 µM	-1.57 ± 0.31
0.289348 µM	-0.817 ± 0.056
0.915 µM	-1.29 ± 0.63
2.89348 µM	-2.32 ± 1.1
9.15 µM	-0.967
28.9348 µM	-0.682 ± 0.11
91.5 µM	0.3 ± 0.0093

Brc1ccc(Oc2ccccc2)cc1 [p-Bromodiphenyl ether]
Settings	LDH release cytotoxicity [%]
0.03162 µM	-0.849 ± 0.61
0.1 µM	-1.4 ± 0.68
0.3162278 µM	-1.66 ± 0.61
1 µM	-1.42 ± 0.37
3.16228 µM	-0.77 ± 0.066
10 µM	-0.841 ± 0.23
31.6228 µM	0.599 ± 0.93
100 µM	3.7 ± 1.8

CCCCC(CC)COP(=O)(OCC(CC)CCCC)OCC(CC)CCCC (configuration not stated) [Tris(2-ethylhexyl) phosphate]
Settings	LDH release cytotoxicity [%]
0.03162 µM	-1.762 ± 0.016
0.1 µM	-1.14 ± 0.93
0.3162278 µM	-1.21 ± 1.2
1 µM	-1.28 ± 1.1
3.16228 µM	-1.23 ± 0.96
10 µM	-1.26 ± 1.1
31.6228 µM	-0.783 ± 1.4
100 µM	0.473 ± 0.56

COc1cc(-c2ccc(N)c(OC)c2)ccc1N [3,3'-Dimethoxybenzidine]
Settings	LDH release cytotoxicity [%]
0.03162 µM	-2.67 ± 0.52
0.1 µM	-2.03 ± 1.2
0.3162278 µM	-2.61 ± 0.54
1 µM	-2.72 ± 1.3
3.16228 µM	-1.97 ± 0.08
10 µM	-2.38 ± 0.65
31.6228 µM	-2.12 ± 0.23
100 µM	-0.532 ± 0.63

Oc1cc(Cl)ccc1Oc1ccc(Cl)cc1Cl [Triclosan]
Settings	LDH release cytotoxicity [%]
0.0322552 µM	-1.38 ± 0.38
0.102 µM	-2.17 ± 0.73
0.322552 µM	-2.07 ± 0.23
1.02 µM	-1.47 ± 0.84
3.2255232 µM	-2.05 ± 1.2
10.2 µM	-1.6 ± 1.3
32.2552 µM	-1.09 ± 1.9
102 µM	-1.09 ± 0.31

N#Cc1cc(Br)c(O)c(Br)c1 [Bromoxynil]
Settings	LDH release cytotoxicity [%]
0.0253 µM	-2.04 ± 0.26
0.08 µM	-2.14 ± 0.42
0.252982 µM	-2.16 ± 0.52
0.8 µM	-1.57 ± 0.33
2.52982 µM	-1.26 ± 0.39
8 µM	0.434 ± 0.55
25.2982 µM	0.49 ± 1.5
80 µM	55.4 ± 0.62

N#Cc1c(Cl)c(Cl)c(Cl)c(C#N)c1Cl [Chlorothalonil]
Settings	LDH release cytotoxicity [%]
0.031623 µM	-0.0289 ± 0.73
0.1 µM	-1.96 ± 3.7
0.316228 µM	-3.42 ± 0.39
1 µM	-2.72 ± 1.5
3.16228 µM	-0.469 ± 1.9
10 µM	4.78 ± 0.7
31.6228 µM	20.5 ± 1.1
100 µM	48.7 ± 34

O=C1CCCCCN1 [Caprolactam]
Settings	LDH release cytotoxicity [%]
0.03162 µM	-0.496 ± 0.65
0.1 µM	-1.92 ± 0.24
0.3162278 µM	-1.76 ± 0.37
1 µM	-0.953 ± 0.14
3.16228 µM	-0.455 ± 0.46
10 µM	-0.823 ± 0.29
31.6228 µM	-0.101 ± 0.44
100 µM	1.84 ± 0.57

COc1ccc(C=CS(=O)(=O)NC(=O)c2ccc(C)cc2Cl)cc1
Settings	LDH release cytotoxicity [%]
0.03162 µM	-1.21 ± 0.38
0.1 µM	-1.99 ± 0.4
0.3162278 µM	-1.66 ± 0.63
1 µM	-1.597 ± 0.014
3.16228 µM	-1.41 ± 0.3
10 µM	-1.42 ± 0.38
31.6228 µM	-0.383 ± 0.54
100 µM	1.21 ± 0.62

CCOCCO [2-Ethoxyethanol]
Settings	LDH release cytotoxicity [%]
0.03162 µM	-0.38 ± 0.81
0.1 µM	0.655 ± 1
0.3162278 µM	-0.174 ± 0.26
1 µM	0.482 ± 0.056
3.16228 µM	0.0895 ± 0.63
10 µM	0.267 ± 1.2
31.6228 µM	0.257 ± 0.32
100 µM	1.46 ± 0.97

C=CCCCCCCCCC(=O)O [10-Undecenoic acid]
Settings	LDH release cytotoxicity [%]
0.03162 µM	0.758 ± 0.055
0.1 µM	-0.653 ± 0.55
0.3162278 µM	-0.789 ± 0.79
1 µM	-0.96 ± 0.32
3.16228 µM	-0.518 ± 0.55
10 µM	-0.534 ± 0.037
31.6228 µM	-1.07 ± 0.49
100 µM	-0.0729 ± 0.15
